The record followed here is PMC12670426 (Journal of Medicinal Chemistry, 2025).

In assay [1] the target is T1, human galectin-3C (Gal-3C, C-terminal CRD of galectin-3) (Homo sapiens, UniProt P17931).
T1 construct: only the C-terminal domain was used (Gal-3C); 6xHis tag with TEV protease site (N, cleaved yes); made in house; host or cells: BL21 Escherichia coli (pET-15b)
Put plainly: Competitive fluorescence polarization assay, Gal-3C. It counts as binding. The method, then:
(§1) Our investigation of the structure–activity relationship of N-aryl-N-lactosylamides started with an initial screening of substituted acetanilides (Table ). These compounds can be readily synthesized from a wide range of commercially available substituted anilines. Affinity was evaluated using a fluorescence polarization assay, which enables reliable determination of dissociation constants (K d) between small molecules and galectins. All inhibitors in this series were tested against the two most common human galectins: Gal-1 and Gal-3. Gal-1 is a prototype galectin consisting of a single CRD and was used in full length. In the case of Gal-3, which consists of the C-terminal CRD and N-terminal unfolded region, only the C-terminal domain was used (Gal-3C). Affinities were compared to methyl β-lactoside (β-LacOMe) as a baseline.
(§2) Fluorescence polarization experiments for determining inhibitor affinities were performed using the same instrumentation and settings as described for the direct binding experiments. […] The galectin–probe mixture was subsequently added using a Certus Flex liquid handler (Fritz Gyger AG, Switzerland) to reach a final volume of 5 μL. Anisotropy was measured after 30–60 min incubation at 25 °C. Inhibitor dissociation constants (K d) were calculated using Wang’s exact cubic model for competitive binding implemented in the BindCurve package. Protein and probe concentrations used in these competitive experiments are provided in the Supporting Information.
(§3) Competitive binding was modeled by Wang’s exact cubic model,3 which is written as […]
(§4) r = rmin + (rmax − rmin) 3 (6) […]
(§5) where r, rmin and rmax have the same meaning as in Equation 1. The coefficients a, b, and c are […]
(§6) a = Kd∗ + Kd + [L∗]T + [L]T − [R]T (7) b = Kd∗([L]T − [R]T) + Kd([L∗]T − [R]T) + Kd∗ Kd (8) […]
(§7) where Kd∗ is the dissociation constant of the probe, Kd is the dissociation constant of the […]
(§8) the unlabeled ligand, and [R]T is the total concentration of the receptor. The angle θ is defined […]
(§9) In the competitive binding experiments, the values of [L∗]T, [R]T and Kd∗ are known and [L]T is titrated. The values of minimal and maximal anisotropy rmin and rmax were fixed during fitting at the values of the minimal and maximal asymptotes obtained from the direct binding experiments. The value of Kd was calculated as the only unfixed parameter in the model.
(§10) Experimental constants used for the competitive fluorescence polarization experiments are […]
(§11) Table S2. Experimental constants used for competitive fluorescence polarization experiments. […]
A general note: Fluorescence polarisation rises when a labelled molecule tumbles more slowly, as on binding a larger partner.

Assay [2] addresses T2, human galectin-1 (Gal-1, full length) (Homo sapiens, UniProt P09382).
T2 construct: Gal-1 is a prototype galectin consisting of a single CRD and was used in full length; 6xHis tag with TEV protease site (N, cleaved yes); made in house; host or cells: BL21 Escherichia coli (pET-15b)
Briefly: Competitive fluorescence polarization assay, Gal-1. It counts as binding. The method, then: as §1, §2, §3, §4, §5, §6, §7, §8, §9, §10, §11

Setting [3] is: CSV supplement, unrounded mean, read-out: Gal3C_IC50_mean_uM.
[4] abbreviates: CSV supplement, unrounded mean, read-out: Gal3C_Kd_mean_uM.
The mark [5] stands for this setting: competitive fluorescence polarization, mean ± SD, read-out: Kd Gal-3C.
[6] abbreviates: four-parameter logistic model, mean ± SD, read-out: IC50 Gal-3C.
Where [7] appears, read: CSV supplement, unrounded mean, read-out: Gal1_IC50_mean_uM.
The mark [8] stands for this setting: CSV supplement, unrounded mean, read-out: Gal1_Kd_mean_uM.
Setting [9] is: competitive fluorescence polarization, mean ± SD, read-out: Kd Gal-1.
Setting [10] is: four-parameter logistic model, mean ± SD, read-out: IC50 Gal-1.

Read-outs that look alike come from different tables or passages of the source.

T2 sequence (P09382 2-135): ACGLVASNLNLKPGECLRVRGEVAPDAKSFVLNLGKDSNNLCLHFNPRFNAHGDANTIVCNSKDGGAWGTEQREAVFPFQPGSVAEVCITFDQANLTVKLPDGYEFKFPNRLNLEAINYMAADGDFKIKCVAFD
T1 sequence (P17931 118-248 limits assumed): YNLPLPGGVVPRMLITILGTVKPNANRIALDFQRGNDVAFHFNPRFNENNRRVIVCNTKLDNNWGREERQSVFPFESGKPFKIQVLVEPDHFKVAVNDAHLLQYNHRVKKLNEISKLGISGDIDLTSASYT

With `O=C(O)c1cccc(N(C(=O)Cc2ccccc2)[C@@H]2O[C@H](CO)[C@@H](O[C@@H]3O[C@H](CO)[C@H](O)[C@H](O)[C@H]3O)[C@H](O)[C@H]2O)c1` [Compound 3u, N-[4-O-(β-D-Galactopyranosyl)-β-D-glucopyranosyl]-N-(3-carboxyphenyl)-2-phenylacetamide], the IC50 in assay [1] (setting [3]) was found to be 133 µM; in assay [1] (setting [6]), 130 ± 20 µM; in assay [2] (setting [7]), 2150 µM; in assay [2] (setting [10]), 2100 ± 800 µM. Besides, the Kd in assay [1] (setting [4]) was determined as 53.6 µM; in assay [1] (setting [5]), 54 ± 6 µM; in assay [2] (setting [8]), 1240 µM; in assay [2] (setting [9]) it was 1200 ± 10 µM.

In the case of `COC(=O)c1cccc(N(C(C)=O)[C@@H]2O[C@H](CO)[C@@H](O[C@@H]3O[C@H](CO)[C@H](O)[C@H](O)[C@H]3O)[C@H](O)[C@H]2O)c1` [Compound 3v, N-[4-O-(β-D-Galactopyranosyl)-β-D-glucopyranosyl]-N-[3-(methylcarboxy)phenyl]acetamide], the IC50 in assay [1] (setting [3]) was 241 µM; in assay [1] (setting [6]), 240 ± 30 µM; in assay [2] (setting [7]) it was 655 µM; in assay [2] (setting [10]), 660 ± 100 µM. The Kd in assay [1] (setting [4]) was determined as 94.6 µM; in assay [1] (setting [5]), 95 ± 40 µM; in assay [2] (setting [8]), 432 µM; in assay [2] (setting [9]) it was 430 ± 30 µM.

For the molecule `CNC(=O)c1cccc(N(C(C)=O)[C@@H]2O[C@H](CO)[C@@H](O[C@@H]3O[C@H](CO)[C@H](O)[C@H](O)[C@H]3O)[C@H](O)[C@H]2O)c1` [Compound 3w, N-[4-O-(β-D-Galactopyranosyl)-β-D-glucopyranosyl]-N-[3-(methylcarbamoyl)phenyl]acetamide], the IC50 in assay [1] (setting [3]) is 220 µM; in assay [1] (setting [6]), 220 ± 6 µM; in assay [2] (setting [7]), 666 µM; in assay [2] (setting [10]), 670 ± 90 µM. For the same molecule, the Kd in assay [1] (setting [4]) came to 88.1 µM; in assay [1] (setting [5]) it was 88 ± 20 µM; in assay [2] (setting [8]) it was 445 µM; in assay [2] (setting [9]), 440 ± 100 µM.

As to `CC(=O)N(c1cccc(CO)c1)[C@@H]1O[C@H](CO)[C@@H](O[C@@H]2O[C@H](CO)[C@H](O)[C@H](O)[C@H]2O)[C@H](O)[C@H]1O` [Compound 3x, N-[4-O-(β-D-Galactopyranosyl)-β-D-glucopyranosyl]-N-[3-(hydroxymethyl)phenyl]acetamide], the IC50 in assay [1] (setting [3]) was 273 µM; in assay [1] (setting [6]), 270 ± 0.9 µM; in assay [2] (setting [7]), 842 µM; in assay [2] (setting [10]), 840 ± 90 µM. The Kd in assay [1] (setting [4]) was determined as 106 µM; in assay [1] (setting [5]) it was 110 ± 30 µM; in assay [2] (setting [8]), 542 µM; in assay [2] (setting [9]) it was 540 ± 60 µM. In addition, the “decrease of affinity toward Gal-3C compared to 3r” value in assay [1] (compared to 3r) stood at 2 fold.

Take `CC(=O)N(c1cccc(-c2nnn[nH]2)c1)[C@@H]1O[C@H](CO)[C@@H](O[C@@H]2O[C@H](CO)[C@H](O)[C@H](O)[C@H]2O)[C@H](O)[C@H]1O` [Compound 3y, N-[4-O-(β-D-Galactopyranosyl)-β-D-glucopyranosyl]-N-[3-(1H-tetrazol-5-yl)phenyl]acetamide]: the IC50 in assay [1] (setting [3]) amounted to 123 µM; in assay [1] (setting [6]), 120 ± 9 µM; in assay [2] (setting [7]), 1260 µM; in assay [2] (setting [10]), 1300 ± 100 µM. Besides, the Kd in assay [1] (setting [4]) was 48.8 µM; in assay [1] (setting [5]), 49 ± 20 µM; in assay [2] (setting [8]), 812 µM; in assay [2] (setting [9]) it was 810 ± 200 µM.

In the case of `CC(=O)N(c1cccc(-c2ccc(C)o2)c1)[C@@H]1O[C@H](CO)[C@@H](O[C@@H]2O[C@H](CO)[C@H](O)[C@H](O)[C@H]2O)[C@H](O)[C@H]1O` [Compound 3z, N-[4-O-(β-D-Galactopyranosyl)-β-D-glucopyranosyl]-N-[3-(5-methylfuran-2-yl)phenyl]acetamide], the IC50 in assay [1] (setting [3]) is 327 µM; in assay [1] (setting [6]) it was 330 ± 1 µM; in assay [2] (setting [7]), 860 µM; in assay [2] (setting [10]), 860 ± 100 µM. The Kd stood at 121 µM in assay [1] (setting [4]), 120 ± 30 µM in assay [1] (setting [5]), 558 µM in assay [2] (setting [8]) and 560 ± 80 µM in assay [2] (setting [9]).

In the case of `CO[C@@H]1O[C@H](CO)[C@@H](O[C@@H]2O[C@H](CO)[C@H](O)[C@H](O)[C@H]2O)[C@H](O)[C@H]1O` [β-LacOMe, methyl β-lactoside, reference compound], the IC50 in assay [1] (setting [3]) is 756 µM; in assay [1] (setting [6]) it was 760 ± 90 µM; in assay [2] (setting [7]) it was 1640 µM; in assay [2] (setting [10]), 1600 ± 70 µM. The Kd is 234 µM in assay [1] (setting [4]), 230 ± 20 µM in assay [1] (setting [5]), 770 µM in assay [2] (setting [8]) and 770 ± 200 µM in assay [2] (setting [9]).
